# Results reported in US20230365546A1, “5-SUBSTITUTED INDOLE 3-AMIDE DERIVATIVES, PREPARATION METHOD AND USE THEREOF” (ORIGIANT PHARMACEUTICAL CO., LTD, priority 2020, published 2023).
# Experiments:
# Assay in all cases: Kinase Profiler 10 μM panel
# Abl (M351T)(h) = Abl (M351T)(h) (Homo sapiens (Human), UniProt P00519, M351T)
# Experimental: (§1) In vitro kinase assays were conducted using Kinase Profiler services provided by Eurofins. The experimental method was as follows: the small molecule compound to be tested (0.001-10 μM), the protein kinase to be tested were incubated with a buffer containing substrate, 10 mM magnesium acetate, and [γ-^33P-ATP], the reaction was started by adding Mg\TPmix, after incubation for a period of time at room temperature, a 3% phosphate solution was added to the buffer to stop the reaction. Subsequently, 10 μL of the reaction mixture was quantitatively pipetted onto P30 filter paper, which was washed three times with 75 mM phosphate solution and then once with methanol. The P30 filter paper was air-dried and scintillation fluid was added for scintillation counting.
# B-Raf(h) = B-Raf(h) (Homo sapiens (Human), UniProt P15056)
# Experimental: as §1
# PAK4(h) = PAK4(h) (Homo sapiens (Human), UniProt O96013)
# Experimental: as §1
# MAP4K3(h) = MAP4K3(h) (Homo sapiens (Human), UniProt Q8IVH8)
# Experimental: as §1
# Abl (H396P)(h) = Abl (H396P)(h) (Homo sapiens (Human), UniProt P00519, H396P)
# Experimental: as §1
# MARK4(h) = MARK4(h) (Homo sapiens (Human), UniProt Q96L34)
# Experimental: as §1
# PKCι(h) = PKCι(h) (Homo sapiens (Human), UniProt P41743)
# Experimental: as §1
# MKK4(m) = MKK4(m) (Mus musculus (Mouse), UniProt P47809)
# Experimental: as §1
# Abl(h) = Abl(h) (Homo sapiens (Human), UniProt P00519)
# Experimental: as §1
# TSSK3(h) = TSSK3(h) (Homo sapiens (Human), UniProt Q96PN8)
# TSSK3(h), sequence (Q96PN8 whole entry): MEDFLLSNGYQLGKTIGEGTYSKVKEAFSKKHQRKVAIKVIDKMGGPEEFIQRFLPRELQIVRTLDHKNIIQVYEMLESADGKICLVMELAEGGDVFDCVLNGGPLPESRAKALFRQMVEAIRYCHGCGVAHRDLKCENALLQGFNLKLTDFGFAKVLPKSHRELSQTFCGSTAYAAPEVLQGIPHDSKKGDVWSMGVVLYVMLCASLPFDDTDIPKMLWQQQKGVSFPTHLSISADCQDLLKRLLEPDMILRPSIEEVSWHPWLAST
# Experimental: as §1
# DCAMKL2(h) = DCAMKL2(h) (Homo sapiens (Human), UniProt Q8N568)
# Experimental: as §1
# LIMK1(h) = LIMK1(h) (Homo sapiens (Human), UniProt P53667)
# Experimental: as §1
# MLCK(h) = test system: MLCK(h)
# Experimental: as §1
# A-Raf(h) = A-Raf(h) (Homo sapiens (Human), UniProt P10398)
# Experimental: as §1
# PKCθ(h) = PKCθ(h) (Homo sapiens (Human), UniProt Q04759)
# Experimental: as §1
# IKKϵ(h) = IKKϵ(h) (Homo sapiens (Human), UniProt Q14164)
# Experimental: as §1
# ALK2(h) = ALK2(h) (Homo sapiens (Human), UniProt Q04771)
# ALK2(h), sequence (Q04771 21-509): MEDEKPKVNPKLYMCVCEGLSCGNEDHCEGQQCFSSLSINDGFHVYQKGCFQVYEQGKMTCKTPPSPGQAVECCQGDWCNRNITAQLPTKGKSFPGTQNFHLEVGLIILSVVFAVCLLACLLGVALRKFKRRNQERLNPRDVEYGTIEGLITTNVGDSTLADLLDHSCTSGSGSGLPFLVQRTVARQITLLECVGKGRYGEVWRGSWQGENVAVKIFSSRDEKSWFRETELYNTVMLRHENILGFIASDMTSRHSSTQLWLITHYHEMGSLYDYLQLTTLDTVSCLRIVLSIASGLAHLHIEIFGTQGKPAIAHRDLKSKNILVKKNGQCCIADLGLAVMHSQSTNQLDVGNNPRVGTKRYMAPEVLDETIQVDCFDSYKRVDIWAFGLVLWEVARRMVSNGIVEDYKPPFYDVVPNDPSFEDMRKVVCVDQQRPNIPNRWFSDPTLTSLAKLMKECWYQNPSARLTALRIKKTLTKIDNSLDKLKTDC
# Experimental: as §1
# MEKK3(h) = MEKK3(h) (Homo sapiens (Human), UniProt Q99759)
# Experimental: as §1
# HRI(h) = HRI(h) (Homo sapiens (Human), UniProt Q9BQI3)
# Experimental: as §1
# [1] = target: PI3 Kinase (p110b/p85a)(h) (Homo sapiens (Human), UniProt P42338)
# Experimental: as §1
# WNK1(h) = WNK1(h) (Homo sapiens (Human), UniProt Q9H4A3)
# WNK1(h), sequence (Q9H4A3 whole entry): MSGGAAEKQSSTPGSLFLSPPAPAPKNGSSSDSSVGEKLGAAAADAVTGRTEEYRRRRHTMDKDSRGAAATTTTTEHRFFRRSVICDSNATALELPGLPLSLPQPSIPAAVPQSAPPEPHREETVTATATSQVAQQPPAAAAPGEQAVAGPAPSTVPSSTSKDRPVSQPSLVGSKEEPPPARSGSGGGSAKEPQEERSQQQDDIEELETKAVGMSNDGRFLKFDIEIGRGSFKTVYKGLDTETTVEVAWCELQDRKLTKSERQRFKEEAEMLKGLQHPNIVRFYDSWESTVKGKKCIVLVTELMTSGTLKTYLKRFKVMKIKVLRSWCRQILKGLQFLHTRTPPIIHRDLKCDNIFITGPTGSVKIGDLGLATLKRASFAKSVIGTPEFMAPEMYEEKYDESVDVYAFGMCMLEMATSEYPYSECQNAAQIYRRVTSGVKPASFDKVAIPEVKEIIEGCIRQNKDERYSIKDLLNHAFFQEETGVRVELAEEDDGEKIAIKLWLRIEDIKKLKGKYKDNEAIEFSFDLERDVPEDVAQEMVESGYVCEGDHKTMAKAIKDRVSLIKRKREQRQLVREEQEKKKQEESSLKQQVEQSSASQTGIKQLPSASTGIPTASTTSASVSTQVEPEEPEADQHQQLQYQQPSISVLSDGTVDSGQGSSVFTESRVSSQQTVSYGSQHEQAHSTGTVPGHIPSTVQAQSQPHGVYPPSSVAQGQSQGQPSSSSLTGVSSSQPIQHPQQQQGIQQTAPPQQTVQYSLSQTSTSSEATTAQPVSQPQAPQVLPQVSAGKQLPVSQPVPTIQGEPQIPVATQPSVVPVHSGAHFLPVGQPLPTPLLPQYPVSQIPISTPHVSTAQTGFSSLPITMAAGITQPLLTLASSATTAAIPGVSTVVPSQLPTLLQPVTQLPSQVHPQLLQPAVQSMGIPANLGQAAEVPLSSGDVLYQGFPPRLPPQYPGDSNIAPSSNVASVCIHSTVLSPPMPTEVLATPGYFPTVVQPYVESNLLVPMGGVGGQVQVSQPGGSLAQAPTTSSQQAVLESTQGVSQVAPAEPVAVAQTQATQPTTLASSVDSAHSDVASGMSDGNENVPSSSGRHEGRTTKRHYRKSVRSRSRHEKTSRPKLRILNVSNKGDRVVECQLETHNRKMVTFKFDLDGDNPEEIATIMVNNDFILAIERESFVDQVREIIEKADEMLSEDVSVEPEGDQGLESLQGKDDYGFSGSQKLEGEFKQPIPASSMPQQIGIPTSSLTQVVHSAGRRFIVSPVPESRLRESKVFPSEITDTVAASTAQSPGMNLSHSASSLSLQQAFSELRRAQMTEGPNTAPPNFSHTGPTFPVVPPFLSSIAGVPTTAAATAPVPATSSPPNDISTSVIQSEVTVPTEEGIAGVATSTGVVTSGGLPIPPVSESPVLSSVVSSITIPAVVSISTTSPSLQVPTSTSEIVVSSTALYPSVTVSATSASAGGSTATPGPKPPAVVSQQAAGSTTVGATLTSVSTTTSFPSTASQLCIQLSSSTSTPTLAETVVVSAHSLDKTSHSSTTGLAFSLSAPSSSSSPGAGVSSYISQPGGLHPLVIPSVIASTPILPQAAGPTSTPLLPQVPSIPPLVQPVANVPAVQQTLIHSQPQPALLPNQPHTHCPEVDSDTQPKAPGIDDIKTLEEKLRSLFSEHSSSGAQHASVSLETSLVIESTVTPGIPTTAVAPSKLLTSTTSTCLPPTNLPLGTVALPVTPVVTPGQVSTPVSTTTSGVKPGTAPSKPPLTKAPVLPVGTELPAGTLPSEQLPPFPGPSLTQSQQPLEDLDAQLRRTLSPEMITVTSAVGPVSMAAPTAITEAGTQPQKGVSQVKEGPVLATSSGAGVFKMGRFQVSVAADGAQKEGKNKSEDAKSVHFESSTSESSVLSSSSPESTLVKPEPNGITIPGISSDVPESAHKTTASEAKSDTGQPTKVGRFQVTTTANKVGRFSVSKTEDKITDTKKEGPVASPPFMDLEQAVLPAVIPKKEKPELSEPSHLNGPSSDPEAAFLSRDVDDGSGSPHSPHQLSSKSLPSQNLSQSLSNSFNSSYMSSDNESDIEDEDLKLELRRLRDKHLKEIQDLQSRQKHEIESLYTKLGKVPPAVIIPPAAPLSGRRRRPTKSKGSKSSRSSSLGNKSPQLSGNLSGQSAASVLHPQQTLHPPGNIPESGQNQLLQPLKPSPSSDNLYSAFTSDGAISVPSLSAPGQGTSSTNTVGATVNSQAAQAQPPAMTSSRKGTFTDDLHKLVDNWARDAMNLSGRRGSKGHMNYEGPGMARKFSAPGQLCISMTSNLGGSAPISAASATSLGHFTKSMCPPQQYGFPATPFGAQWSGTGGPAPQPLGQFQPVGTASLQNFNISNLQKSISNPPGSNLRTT
# Experimental: as §1
# CaMKK1(h) = CaMKK1(h) (Homo sapiens (Human), UniProt Q8N5S9)
# Experimental: as §1
# CaMKIV(h) = CaMKIV(h) (Homo sapiens (Human), UniProt Q16566)
# CaMKIV(h), sequence (Q16566 whole entry): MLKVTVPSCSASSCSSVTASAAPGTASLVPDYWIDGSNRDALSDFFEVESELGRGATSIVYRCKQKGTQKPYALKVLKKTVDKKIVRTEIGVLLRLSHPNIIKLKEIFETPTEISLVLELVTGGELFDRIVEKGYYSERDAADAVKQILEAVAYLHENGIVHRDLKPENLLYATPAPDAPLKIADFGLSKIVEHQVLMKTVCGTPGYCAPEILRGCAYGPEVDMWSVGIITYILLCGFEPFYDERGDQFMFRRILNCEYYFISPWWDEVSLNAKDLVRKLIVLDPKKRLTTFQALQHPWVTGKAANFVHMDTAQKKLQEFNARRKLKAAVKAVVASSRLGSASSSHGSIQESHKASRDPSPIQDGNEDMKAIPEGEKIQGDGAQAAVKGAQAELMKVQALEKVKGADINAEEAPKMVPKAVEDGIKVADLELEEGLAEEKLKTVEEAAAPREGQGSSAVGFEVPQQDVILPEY
# Experimental: as §1
# SAPK3(h) = SAPK3(h) (Homo sapiens (Human), UniProt P53778)
# Experimental: as §1
# SGK(h) = SGK(h) (Homo sapiens (Human), UniProt O00141)
# SGK(h), sequence (O00141 whole entry): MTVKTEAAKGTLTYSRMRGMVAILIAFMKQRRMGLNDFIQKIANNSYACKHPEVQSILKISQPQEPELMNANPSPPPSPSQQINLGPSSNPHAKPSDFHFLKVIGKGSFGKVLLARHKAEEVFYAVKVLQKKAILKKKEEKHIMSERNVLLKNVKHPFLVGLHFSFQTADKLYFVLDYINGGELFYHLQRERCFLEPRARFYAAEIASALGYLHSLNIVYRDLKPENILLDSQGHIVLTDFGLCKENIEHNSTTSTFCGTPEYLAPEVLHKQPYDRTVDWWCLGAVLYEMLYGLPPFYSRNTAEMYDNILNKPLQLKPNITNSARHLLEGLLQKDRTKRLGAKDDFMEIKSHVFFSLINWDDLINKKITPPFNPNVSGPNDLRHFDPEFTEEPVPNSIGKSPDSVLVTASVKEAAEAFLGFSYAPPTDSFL
# Experimental: as §1
# PI3KC2g(h) = PI3KC2g(h) (Homo sapiens (Human), UniProt O75747)
# Experimental: as §1
# CaMKIIγ(h) = CaMKIIγ(h) (Homo sapiens (Human), UniProt Q13555)
# Experimental: as §1
# CDK5/p25(h) = CDK5/p25(h) (Homo sapiens (Human), UniProt Q00535)
# Experimental: as §1
# PAK2(h) = PAK2(h) (Homo sapiens (Human), UniProt Q13177)
# Experimental: as §1
# STK32C(h) = STK32C(h) (Homo sapiens (Human), UniProt Q86UX6)
# Experimental: as §1
# cKit(D816H)(h) = cKit(D816H)(h) (Homo sapiens (Human), UniProt P10721, D816H)
# cKit(D816H)(h), sequence (P10721 26-976 D816H): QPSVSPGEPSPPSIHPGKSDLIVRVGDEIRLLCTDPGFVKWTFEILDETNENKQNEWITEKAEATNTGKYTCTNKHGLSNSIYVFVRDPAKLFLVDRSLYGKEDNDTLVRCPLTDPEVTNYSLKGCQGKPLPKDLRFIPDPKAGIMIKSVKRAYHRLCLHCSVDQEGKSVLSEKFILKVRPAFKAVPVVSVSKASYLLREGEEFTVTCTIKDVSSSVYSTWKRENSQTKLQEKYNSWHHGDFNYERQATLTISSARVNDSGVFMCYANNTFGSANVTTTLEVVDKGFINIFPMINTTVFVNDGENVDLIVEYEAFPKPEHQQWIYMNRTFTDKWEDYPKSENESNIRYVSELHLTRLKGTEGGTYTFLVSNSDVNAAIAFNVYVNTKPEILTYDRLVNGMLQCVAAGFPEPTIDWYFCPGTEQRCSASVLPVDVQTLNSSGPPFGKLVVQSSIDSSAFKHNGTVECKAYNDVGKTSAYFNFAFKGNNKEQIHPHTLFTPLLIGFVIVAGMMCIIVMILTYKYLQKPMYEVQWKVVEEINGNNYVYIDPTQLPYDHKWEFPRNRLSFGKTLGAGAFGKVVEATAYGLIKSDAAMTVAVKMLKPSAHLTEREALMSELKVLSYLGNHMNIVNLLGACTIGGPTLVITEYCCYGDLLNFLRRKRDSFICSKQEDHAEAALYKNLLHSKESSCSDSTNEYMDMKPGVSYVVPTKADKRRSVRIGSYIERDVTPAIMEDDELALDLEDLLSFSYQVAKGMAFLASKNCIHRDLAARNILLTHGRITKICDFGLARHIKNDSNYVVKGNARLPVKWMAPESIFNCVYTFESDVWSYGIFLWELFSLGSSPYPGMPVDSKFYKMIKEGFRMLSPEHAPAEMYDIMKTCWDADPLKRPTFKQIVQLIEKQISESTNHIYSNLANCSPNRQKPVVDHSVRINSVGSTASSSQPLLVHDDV
# Experimental: as §1
# [2] = target: PI3 Kinase (p110a(H1047R)/p85a)(m) (Mus musculus (Mouse), UniProt P42337, H1047R)
# Experimental: as §1
# CaMKIβ(h) = CaMKIβ(h) (Homo sapiens (Human), UniProt Q6P2M8)
# Experimental: as §1
# Bmx(h) = Bmx(h) (Homo sapiens (Human), UniProt P51813)
# Experimental: as §1
structure (smiles),measurement,setting,value
"C[C@H](NC(=O)c1c[nH]c2ccc(-c3ccc4nc(NC(=O)C5CC5)sc4c3)cc12)c1cccc(F)c1 [Compound 34, (S)-5-(2-(cyclopropanecarboxamido)benzo[d]thiazol-6-yl)-N-(1-(3-fluorophenyl)ethyl)-1H-indole-3-carboxamide]",Inhibition ratio,Abl (M351T)(h),97%
same,Inhibition ratio,B-Raf(h),20%
same,Inhibition ratio,PAK4(h),10%
same,Inhibition ratio,MAP4K3(h),95%
same,Inhibition ratio,Abl (H396P)(h),98%
same,Inhibition ratio,MARK4(h),3%
same,Inhibition ratio,PKCι(h),−4%
same,Inhibition ratio,MKK4(m),9%
same,Inhibition ratio,Abl(h),102%
same,Inhibition ratio,TSSK3(h),−6%
same,Inhibition ratio,DCAMKL2(h),6%
same,Inhibition ratio,LIMK1(h),14%
same,Inhibition ratio,MLCK(h),14%
same,Inhibition ratio,A-Raf(h),−1%
same,Inhibition ratio,PKCθ(h),−24%
same,Inhibition ratio,IKKϵ(h),19%
same,Inhibition ratio,ALK2(h),64%
same,Inhibition ratio,MEKK3(h),2%
same,Inhibition ratio,HRI(h),−3%
same,Inhibition ratio,[1],16%
same,Inhibition ratio,WNK1(h),10%
same,Inhibition ratio,CaMKK1(h),74%
same,Inhibition ratio,CaMKIV(h),20%
same,Inhibition ratio,SAPK3(h),84%
same,Inhibition ratio,SGK(h),2%
same,Inhibition ratio,PI3KC2g(h),76%
same,Inhibition ratio,CaMKIIγ(h),2%
same,Inhibition ratio,CDK5/p25(h),16%
same,Inhibition ratio,PAK2(h),19%
same,Inhibition ratio,STK32C(h),3%
same,Inhibition ratio,cKit(D816H)(h),44%
same,Inhibition ratio,[2],17%
same,Inhibition ratio,CaMKIβ(h),11%
same,Inhibition ratio,Bmx(h),54%
"C[C@H](NC(=O)c1cn(C)c2ccc(-c3ccn4nc(NC(=O)C5CC5)nc4c3)cc12)c1cccc(F)c1 [Compound 94, (S)-5-(2-(cyclopropanecarboxamido)-[1,2,4]triazolo[1,5-a]pyridin-7-yl)-N-(1-(3-fluorophenyl)ethyl)-1-methyl-1H-indole-3-carboxamide]",Inhibition ratio/%,Abl (M351T)(h),29%
same,Inhibition ratio/%,B-Raf(h),−5%
same,Inhibition ratio/%,PAK4(h),5%
same,Inhibition ratio/%,MAP4K3(h),28%
same,Inhibition ratio/%,Abl (H396P)(h),34%
same,Inhibition ratio/%,MARK4(h),38%
same,Inhibition ratio/%,PKCι(h),54%
same,Inhibition ratio/%,MKK4(m),27%
same,Inhibition ratio/%,Abl(h),32%
same,Inhibition ratio/%,TSSK3(h),0%
same,Inhibition ratio/%,DCAMKL2(h),74%
same,Inhibition ratio/%,LIMK1(h),−1%
same,Inhibition ratio/%,MLCK(h),14%
same,Inhibition ratio/%,A-Raf(h),10%
same,Inhibition ratio/%,PKCθ(h),7%
same,Inhibition ratio/%,IKKϵ(h),−15%
same,Inhibition ratio/%,ALK2(h),−17%
same,Inhibition ratio/%,MEKK3(h),14%
same,Inhibition ratio/%,HRI(h),−4%
same,Inhibition ratio/%,[1],−7%
same,Inhibition ratio/%,WNK1(h),45%
same,Inhibition ratio/%,CaMKK1(h),35%
same,Inhibition ratio/%,CaMKIV(h),21%
same,Inhibition ratio/%,SAPK3(h),46%
same,Inhibition ratio/%,SGK(h),51%
same,Inhibition ratio/%,PI3KC2g(h),24%
same,Inhibition ratio/%,CaMKIIγ(h),−15%
same,Inhibition ratio/%,CDK5/p25(h),46%
same,Inhibition ratio/%,PAK2(h),−14%
same,Inhibition ratio/%,STK32C(h),22%
same,Inhibition ratio/%,cKit(D816H)(h),42%
same,Inhibition ratio/%,[2],47%
same,Inhibition ratio/%,CaMKIβ(h),31%
same,Inhibition ratio/%,Bmx(h),34%
